Earlier results on four compounds are cited in patent publication EP2151445B1, “Process for the preparation of bidentate Schiff base ruthenium catalysts containing a salicylaldimine-type ligand” (Rimtec Corporation, priority 2008, dated 2010).

For this series the following is noted: in water.
Take `O=C([O-])[O-].[Cu+2]` [CuCO3]: the pKb result is recorded as “about 3.69”.
Consider `O=C([O-])[O-].[K+].[K+]` [K2CO3], for which the pKb result is “about 3.69”.
Turning to `O=C([O-])[O-].[Li+].[Li+]` [Li2CO3], the pKb entry was “about 3.69”.
Turning to `O=C([O-])[O-].[Na+].[Na+]` [Na2CO3], the pKb entry is given as “about 3.69”.
